We go through one cell line from the supplement of paper PMC10307832.

What all share (assay): relative viability (nuclei count vs DMSO), 5 days (fraction); higher = more cells survive
Compound in the assay “Wnt-C59 + Foretinib”: CC1=NC=CC(=C1)C2=CC=C(C=C2)CC(=O)NC3=CC=C(C=C3)C4=CN=CC=C4 [Wnt-C59] + COc1cc2c(Oc3ccc(NC(=O)C4(C(=O)Nc5ccc(F)cc5)CC4)cc3F)ccnc2cc1OCCCN1CCOCC1 [Foretinib] (partner 0.25 µM)
The method, boiled down:
(§1)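 Lung cancer cell lines in 1536-well plates got either a single drug or a fixed anchor-drug dose together with five library-drug doses (not always all listed) in √10 steps, by pin tool, on the day after seeding. Nuclei were counted after 5 days, and relative viability is the treated-to-vehicle ratio of nuclei counts. Values are medians of duplicate plates.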

Compound in the assay “Wnt-C59 + Pictilisib”: CC1=NC=CC(=C1)C2=CC=C(C=C2)CC(=O)NC3=CC=C(C=C3)C4=CN=CC=C4 [Wnt-C59] + CS(=O)(=O)N1CCN(Cc2cc3nc(-c4cccc5[nH]ncc45)nc(N4CCOCC4)c3s2)CC1 [Pictilisib] (partner 1 µM)
The method, boiled down: as §1

Compound in the assay “Lapatinib + Dasatinib”: CS(=O)(=O)CCNCc1ccc(-c2ccc3ncnc(Nc4ccc(OCc5cccc(F)c5)c(Cl)c4)c3c2)o1 [Lapatinib] + Cc1nc(Nc2ncc(C(=O)Nc3c(C)cccc3Cl)s2)cc(N2CCN(CCO)CC2)n1 [Dasatinib] (partner 0.075 µM)
The method, boiled down: as §1

Compound in the assay “Lapatinib + Phenformin”: CS(=O)(=O)CCNCc1ccc(-c2ccc3ncnc(Nc4ccc(OCc5cccc(F)c5)c(Cl)c4)c3c2)o1 [Lapatinib] + N=C(N)NC(=N)NCCc1ccccc1 [Phenformin] (partner 250 µM)
The method, boiled down:
as §1

Turning to UMC-11, the relative viability with Wnt-C59 + Foretinib (first compound 0.001 µM) worked out at 1.04; in the assay with Wnt-C59 + Foretinib (first compound 0.01 µM), 1.01; in the assay with Wnt-C59 + Foretinib (first compound 0.03162 µM) it was 1.06; with Wnt-C59 + Foretinib (first compound 0.1 µM), 0.996; with Wnt-C59 + Pictilisib (first compound 0.001 µM) it was 0.81; with Wnt-C59 + Pictilisib (first compound 0.01 µM), 0.843. The relative viability came out at 0.844 with Wnt-C59 + Pictilisib (first compound 0.03162 µM); 0.756 in the assay with Wnt-C59 + Pictilisib (first compound 0.1 µM); 0.45 with Lapatinib + Dasatinib (first compound 0.02 µM); 0.404 in the assay with Lapatinib + Dasatinib (first compound 0.06325 µM); 0.52 with Lapatinib + Dasatinib (first compound 0.2 µM); 0.453 in the assay with Lapatinib + Dasatinib (first compound 0.6325 µM). The relative viability with Lapatinib + Dasatinib (first compound 2 µM) stood at 0.421; with Lapatinib + Phenformin (first compound 0.02 µM) it was 0.351; in the assay with Lapatinib + Phenformin (first compound 0.06325 µM), 0.306; in the assay with Lapatinib + Phenformin (first compound 0.2 µM), 0.297; with Lapatinib + Phenformin (first compound 0.6325 µM), 0.321; in the assay with Lapatinib + Phenformin (first compound 2 µM) it was 0.298.
